Measurements: the NIST ThermoML archive (doi:10.1021/je060200b)
± gives the expanded uncertainty stated by the source.

Assay: xn = mol fraction of the nth substance listed
Conditions: 101 kPa, Liquid; for speed of sound: Pulse-echo method; for mass density: Vibrating tube method

Compound: BrCCCCCBr [1,5-dibromopentane] + CCCCCCC
- speed of sound (292.38 K, x1 = 1): 1149.5 ± 1.2 m/s
- mass density (292.52 K, x1 = 0.1006): 779.97 ± 0.21 kg/m3
- mass density (292.52 K, x1 = 0.1994): 875.92 ± 0.28 kg/m3
- mass density (292.52 K, x1 = 0.3003): 975.53 ± 0.39 kg/m3
- mass density (292.52 K, x1 = 0.4008): 1075.8 ± 0.51 kg/m3
- mass density (292.52 K, x1 = 0.5004): 1176.68 ± 0.64 kg/m3
- mass density (292.52 K, x1 = 0.5999): 1278.62 ± 0.62 kg/m3
- mass density (292.52 K, x1 = 0.6995): 1381.6 ± 0.65 kg/m3
- mass density (292.52 K, x1 = 0.8002): 1487.16 ± 0.7 kg/m3
- mass density (292.52 K, x1 = 0.899): 1591.59 ± 0.79 kg/m3
- mass density (292.52 K, x1 = 1): 1699.54 ± 0.91 kg/m3
- speed of sound (292.56 K, x1 = 0.4): 1103.5 ± 0.86 m/s
- speed of sound (292.59 K, x1 = 0.5001): 1104.2 ± 0.91 m/s
- speed of sound (292.65 K, x1 = 0.2): 1116.5 ± 0.8 m/s
- speed of sound (292.68 K, x1 = 0.3001): 1107.2 ± 0.83 m/s
- speed of sound (292.73 K, x1 = 0.7999): 1126.3 ± 1.1 m/s
- speed of sound (292.75 K, x1 = 0.8998): 1137.3 ± 1.1 m/s
- speed of sound (292.76 K, x1 = 0.6): 1108.4 ± 0.96 m/s
- speed of sound (292.8 K, x1 = 0.6997): 1116.2 ± 1 m/s
- speed of sound (292.83 K, x1 = 0.1): 1131.1 ± 0.79 m/s
- mass density (298.05 K, x1 = 0.1006): 775.18 ± 0.21 kg/m3
- mass density (298.05 K, x1 = 0.1994): 870.87 ± 0.28 kg/m3
- mass density (298.05 K, x1 = 0.3003): 969.84 ± 0.38 kg/m3
- mass density (298.05 K, x1 = 0.4008): 1070.23 ± 0.51 kg/m3
- mass density (298.05 K, x1 = 0.5004): 1170.91 ± 0.63 kg/m3
- mass density (298.05 K, x1 = 0.5999): 1272.47 ± 0.62 kg/m3
- mass density (298.05 K, x1 = 0.6995): 1375.26 ± 0.64 kg/m3
- mass density (298.05 K, x1 = 0.8002): 1480.47 ± 0.7 kg/m3
- mass density (298.05 K, x1 = 0.899): 1584.66 ± 0.79 kg/m3
- mass density (298.05 K, x1 = 1): 1691.87 ± 0.91 kg/m3
- speed of sound (298.37 K, x1 = 1): 1133 ± 1.2 m/s
- speed of sound (298.59 K, x1 = 0.5001): 1084.5 ± 0.89 m/s
- speed of sound (298.62 K, x1 = 0.4): 1082.8 ± 0.85 m/s
- speed of sound (298.63 K, x1 = 0.2): 1093.8 ± 0.78 m/s
- speed of sound (298.67 K, x1 = 0.3001): 1085.7 ± 0.81 m/s
- speed of sound (298.73 K, x1 = 0.8998): 1120.2 ± 1.1 m/s
- speed of sound (298.76 K, x1 = 0.7999): 1108.6 ± 1.1 m/s
- speed of sound (298.77 K, x1 = 0.6): 1089.6 ± 0.94 m/s
- speed of sound (298.8 K, x1 = 0.6997): 1098.1 ± 1 m/s
- speed of sound (298.83 K, x1 = 0.1): 1106.8 ± 0.76 m/s
- mass density (303.06 K, x1 = 0.1006): 770.79 ± 0.21 kg/m3
- mass density (303.06 K, x1 = 0.1994): 866 ± 0.28 kg/m3
- mass density (303.06 K, x1 = 0.3003): 964.71 ± 0.38 kg/m3
- mass density (303.06 K, x1 = 0.4008): 1064.63 ± 0.5 kg/m3
- mass density (303.06 K, x1 = 0.5004): 1165.02 ± 0.63 kg/m3
- mass density (303.06 K, x1 = 0.5999): 1266.37 ± 0.62 kg/m3
- mass density (303.06 K, x1 = 0.6995): 1368.9 ± 0.64 kg/m3
- mass density (303.06 K, x1 = 0.8002): 1474.36 ± 0.7 kg/m3
- mass density (303.06 K, x1 = 0.899): 1578.04 ± 0.79 kg/m3
- mass density (303.06 K, x1 = 1): 1684.89 ± 0.9 kg/m3
- speed of sound (303.39 K, x1 = 1): 1119.3 ± 1.2 m/s
- speed of sound (303.59 K, x1 = 0.2): 1075.1 ± 0.77 m/s
- speed of sound (303.63 K, x1 = 0.3001): 1068 ± 0.8 m/s
- speed of sound (303.64 K, x1 = 0.4): 1065.8 ± 0.84 m/s
- speed of sound (303.64 K, x1 = 0.5001): 1068.3 ± 0.89 m/s
- speed of sound (303.67 K, x1 = 0.8998): 1106.3 ± 1.1 m/s
- speed of sound (303.71 K, x1 = 0.7999): 1094.2 ± 1.1 m/s
- speed of sound (303.72 K, x1 = 0.6): 1074.2 ± 0.94 m/s
- speed of sound (303.78 K, x1 = 0.6997): 1083.1 ± 1 m/s
- speed of sound (303.86 K, x1 = 0.1): 1086.5 ± 0.76 m/s
- mass density (308.08 K, x1 = 0.1006): 766.31 ± 0.21 kg/m3
- mass density (308.08 K, x1 = 0.1994): 861.23 ± 0.28 kg/m3
- mass density (308.08 K, x1 = 0.3003): 959.36 ± 0.38 kg/m3
- mass density (308.08 K, x1 = 0.4008): 1058.93 ± 0.5 kg/m3
- mass density (308.08 K, x1 = 0.5004): 1159.11 ± 0.63 kg/m3
- mass density (308.08 K, x1 = 0.5999): 1260.5 ± 0.62 kg/m3
- mass density (308.08 K, x1 = 0.6995): 1362.98 ± 0.64 kg/m3
- mass density (308.08 K, x1 = 0.8002): 1467.91 ± 0.69 kg/m3
- mass density (308.08 K, x1 = 0.899): 1571.77 ± 0.78 kg/m3
- mass density (308.08 K, x1 = 1): 1678.03 ± 0.9 kg/m3
- speed of sound (308.38 K, x1 = 1): 1105.8 ± 1.2 m/s
- speed of sound (308.55 K, x1 = 0.2): 1056.4 ± 0.77 m/s
- speed of sound (308.58 K, x1 = 0.4): 1049.1 ± 0.84 m/s
- speed of sound (308.58 K, x1 = 0.5001): 1052.4 ± 0.88 m/s
- speed of sound (308.67 K, x1 = 0.3001): 1050 ± 0.8 m/s
- speed of sound (308.67 K, x1 = 0.8998): 1092.3 ± 1.1 m/s
- speed of sound (308.69 K, x1 = 0.6): 1058.9 ± 0.94 m/s
- speed of sound (308.7 K, x1 = 0.7999): 1079.8 ± 1.1 m/s
- speed of sound (308.82 K, x1 = 0.6997): 1068.1 ± 1 m/s
- speed of sound (308.84 K, x1 = 0.1): 1066.7 ± 0.75 m/s
- speed of sound (314.36 K, x1 = 1): 1089.7 ± 1.2 m/s
- speed of sound (314.52 K, x1 = 0.5001): 1033.4 ± 0.87 m/s
- speed of sound (314.54 K, x1 = 0.3001): 1029.3 ± 0.78 m/s
- speed of sound (314.61 K, x1 = 0.2): 1033.8 ± 0.75 m/s
- mass density (314.66 K, x1 = 0.1006): 760.22 ± 0.21 kg/m3
- mass density (314.66 K, x1 = 0.1994): 854.58 ± 0.28 kg/m3
- mass density (314.66 K, x1 = 0.3003): 952.58 ± 0.38 kg/m3
- mass density (314.66 K, x1 = 0.4008): 1052 ± 0.5 kg/m3
- mass density (314.66 K, x1 = 0.5004): 1151.72 ± 0.63 kg/m3
- mass density (314.66 K, x1 = 0.5999): 1252.55 ± 0.61 kg/m3
- mass density (314.66 K, x1 = 0.6995): 1354.65 ± 0.63 kg/m3
- mass density (314.66 K, x1 = 0.8002): 1459.75 ± 0.69 kg/m3
- mass density (314.66 K, x1 = 0.899): 1562.81 ± 0.78 kg/m3
- mass density (314.66 K, x1 = 1): 1668.75 ± 0.89 kg/m3
- speed of sound (314.67 K, x1 = 0.4): 1028.8 ± 0.82 m/s
- speed of sound (314.68 K, x1 = 0.7999): 1062.8 ± 1.1 m/s
- speed of sound (314.7 K, x1 = 0.8998): 1075.6 ± 1.1 m/s
- speed of sound (314.75 K, x1 = 0.6): 1040.2 ± 0.93 m/s
- speed of sound (314.82 K, x1 = 0.6997): 1050.3 ± 0.99 m/s
- speed of sound (314.83 K, x1 = 0.1): 1042.8 ± 0.72 m/s
